Among the data in ChEMBL document CHEMBL1143091, “Synthesis and SAR studies of biaryloxy-substituted triazoles as antifungal agents” (2008) are MIC values, retold here.

Values after ≈ are worked out from the molar mass of the structure shown. Some results are limits rather than exact numbers.

The test system of assay [1] is Fonsecaea compacta. Kind of assay: Antimicrobial activity against Fonsecaea compacta isolates. The class given is functional.
For assay [2], the system named is Candida albicans. Kind of assay: Antimicrobial activity against Candida albicans ATCC 76615. The class given is functional.
Assay [3] concerns Candida parapsilosis. Kind of assay: Antimicrobial activity against […] isolates. To be noted: Lodderomyces parapsilosis. The class given is functional.
For assay [4], the system named is Cryptococcus neoformans. Nature of the assay: Antimicrobial activity against Cryptococcus neoformans ATCC 32609. The class given is functional.
For assay [5], the system named is Nannizzia gypsea. Kind of assay: Antimicrobial activity against Microsporum gypseum isolates. The class given is functional.
Assay [6] relates to Candida tropicalis. Nature of the assay: Antimicrobial activity against Candida tropicalis isolates. The assay is classed as functional.
The test system of assay [7] is Trichophyton rubrum. Kind of assay: Antimicrobial activity against Trichophyton rubrum isolates. The assay is classed as functional.
The test system of assay [8] is Aspergillus fumigatus. Nature of the assay: Antimicrobial activity against Aspergillus fumigatus isolates. The assay is classed as functional.
Assay [9] has as its system Candida parapsilosis. Kind of assay: Antimicrobial activity against Candida parapsilosis isolates. The conditions noted are these: Lodderomyces parapsilosis.

For orientation: MIC means the least concentration at which growth counts as inhibited.

Regarding `ON=Cc1ccc(-c2ccc(OCC(O)(Cn3cncn3)c3ccc(F)cc3F)cc2)cc1` (stereo unspecified), the minimal inhibitory concentration (MIC) in assay [1] is 1 µg/mL (≈ 2.22 µM); in assay [2] it was 0.0039 µg/mL (≈ 0.00866 µM); in [3], 0.0039 µg/mL (≈ 0.00866 µM); in [4], 1 µg/mL (≈ 2.22 µM); in assay [5] it was 1 µg/mL (≈ 2.22 µM); in assay [6], 0.0156 µg/mL (≈ 0.0346 µM). Besides, the MIC in assay [7] was 1 µg/mL (≈ 2.22 µM); in assay [8], over 64 µg/mL.

`CCC(C)n1ncn(-c2ccc(N3CCN(c4ccc(OC[C@H]5CO[C@](Cn6cncn6)(c6ccc(Cl)cc6Cl)O5)cc4)CC3)cc2)c1=O` (stereo partly specified) [ITRACONAZOLE]: the MIC in [1] was 0.0625 µg/mL (≈ 0.0886 µM); in [2] it was 0.5 µg/mL (≈ 0.709 µM); in assay [4] it was 1 µg/mL (≈ 1.42 µM); in assay [5] it was 0.0625 µg/mL (≈ 0.0886 µM); in assay [9], 0.0312 µg/mL (≈ 0.0442 µM); in assay [6], 0.25 µg/mL (≈ 0.354 µM). The results for the MIC in [7] and in assay [8] were 0.0156 µg/mL (≈ 0.0221 µM) and 1 µg/mL (≈ 1.42 µM), respectively.

As to `C[C@@H]1COC[C@H](C)N1Cc1ccc(C(=O)Nc2ccc(-c3ccc(OCC(O)(Cn4cncn4)c4ccc(F)cc4F)cc3)cn2)cc1` (stereo partly specified), the MIC in assay [1] was 16 µg/mL (≈ 24.4 µM); in [2] it was 0.0625 µg/mL (≈ 0.0955 µM); in [4] it was 4 µg/mL (≈ 6.11 µM); in assay [5], over 64 µg/mL; in [9], 0.0625 µg/mL (≈ 0.0955 µM); in assay [6], 0.0625 µg/mL (≈ 0.0955 µM). The minimum inhibitory concentration (MIC) in assay [7] and in [8] was over 64 µg/mL in each case.

Regarding `OCc1ccc(-c2ccc(OCC(O)(Cn3cncn3)c3ccc(F)cc3F)cc2)cc1` (stereo unspecified), the minimal inhibitory concentration (MIC) in assay [1] stood at 16 µg/mL (≈ 36.6 µM); in [2], 0.0156 µg/mL (≈ 0.0357 µM); in assay [4], 1 µg/mL (≈ 2.29 µM); in assay [5] it was 1 µg/mL (≈ 2.29 µM); in [9], 0.0625 µg/mL (≈ 0.143 µM); in [6], 0.0156 µg/mL (≈ 0.0357 µM). In addition, the MIC in assay [7] was 1 µg/mL (≈ 2.29 µM); in [8], over 64 µg/mL.

Turning to `CNCC(=O)Nc1ccc(-c2ccc(OCC(O)(Cn3cncn3)c3ccc(F)cc3F)cc2)cn1` (stereo unspecified), the minimal inhibitory concentration (MIC) worked out at 1 µg/mL (≈ 2.02 µM) in [1]; 0.0625 µg/mL (≈ 0.126 µM) in assay [2]; 16 µg/mL (≈ 32.4 µM) in [4]; 1 µg/mL (≈ 2.02 µM) in [5]; 0.25 µg/mL (≈ 0.506 µM) in assay [9]; 0.25 µg/mL (≈ 0.506 µM) in [6]. The MIC in [7] is 1 µg/mL (≈ 2.02 µM); in [8], 4 µg/mL (≈ 8.09 µM).

In the case of `O=C(CN1CCCCC1)Nc1ccc(-c2ccc(OCC(O)(Cn3cncn3)c3ccc(F)cc3F)cc2)cn1` (stereo unspecified), the MIC amounted to 1 µg/mL (≈ 1.82 µM) in assay [1]; 0.0625 µg/mL (≈ 0.114 µM) in assay [2]; 1 µg/mL (≈ 1.82 µM) in [4]; 0.25 µg/mL (≈ 0.456 µM) in assay [5]; 0.0625 µg/mL (≈ 0.114 µM) in assay [9]; 0.0156 µg/mL (≈ 0.0284 µM) in [6]. The MIC was 0.25 µg/mL (≈ 0.456 µM) in assay [7] and over 64 µg/mL in assay [8].

As for `OC(Cn1cncn1)(Cn1cncn1)c1ccc(F)cc1F` [FLUCONAZOLE], the MIC in [1] worked out at 16 µg/mL (≈ 52.2 µM); in assay [2], 16 µg/mL (≈ 52.2 µM); in [4] it was 0.25 µg/mL (≈ 0.816 µM); in assay [5], 1 µg/mL (≈ 3.27 µM); in [9] it was 4 µg/mL (≈ 13.1 µM); in [6], 1 µg/mL (≈ 3.27 µM). Moreover, the MIC was 1 µg/mL (≈ 3.27 µM) in [7] and over 64 µg/mL in [8].

For `Cc1cccc(C(=O)Nc2ccc(-c3ccc(OCC(O)(Cn4cncn4)c4ccc(F)cc4F)cc3)cn2)c1` (stereo unspecified), the minimum inhibitory concentration (MIC) is 1 µg/mL (≈ 1.85 µM) in assay [1]; 0.25 µg/mL (≈ 0.462 µM) in assay [2]; 0.25 µg/mL (≈ 0.462 µM) in assay [4]; 1 µg/mL (≈ 1.85 µM) in [5]; 0.25 µg/mL (≈ 0.462 µM) in [9]; 0.25 µg/mL (≈ 0.462 µM) in assay [6]. The results for the MIC in assay [7] and in [8] were 1 µg/mL (≈ 1.85 µM) and 64 µg/mL (≈ 118 µM), respectively.

For `CCCCCCCNc1ccc(-c2ccc(OCC(O)(Cn3cncn3)c3ccc(F)cc3F)cc2)cn1` (stereo unspecified), the minimum inhibitory concentration (MIC) was 1 µg/mL (≈ 1.92 µM) in assay [1]; 0.25 µg/mL (≈ 0.479 µM) in assay [2]; 1 µg/mL (≈ 1.92 µM) in assay [4]; 1 µg/mL (≈ 1.92 µM) in [5]; 1 µg/mL (≈ 1.92 µM) in assay [9]; 0.25 µg/mL (≈ 0.479 µM) in assay [6]. For the same molecule, the figures for the MIC in assay [7] and in [8] were 0.25 µg/mL (≈ 0.479 µM) and over 64 µg/mL, respectively.

On to `Oc1ccccc1CNc1ccc(-c2ccc(OCC(O)(Cn3cncn3)c3ccc(F)cc3F)cc2)cn1` (stereo unspecified), for which the MIC is 0.25 µg/mL (≈ 0.472 µM) in [1]; 0.0625 µg/mL (≈ 0.118 µM) in assay [2]; over 64 µg/mL in assay [4]; 0.0625 µg/mL (≈ 0.118 µM) in [5]; 0.0625 µg/mL (≈ 0.118 µM) in [9]; 0.0625 µg/mL (≈ 0.118 µM) in [6]. The minimal inhibitory concentration (MIC) in assay [7] came out at 0.0625 µg/mL (≈ 0.118 µM); in [8], 64 µg/mL (≈ 121 µM).

With `CN(C)Cc1ccc(-c2ccc(OCC(O)(Cn3cncn3)c3ccc(F)cc3F)cc2)cc1` (stereo unspecified), the MIC in assay [1] was found to be 4 µg/mL (≈ 8.61 µM); in assay [2] it was 0.25 µg/mL (≈ 0.538 µM); in [4] it was 4 µg/mL (≈ 8.61 µM); in assay [5] it was 1 µg/mL (≈ 2.15 µM); in [9], 0.25 µg/mL (≈ 0.538 µM); in assay [6] it was 0.0625 µg/mL (≈ 0.135 µM). Moreover, the values for the MIC in assay [7] and in [8] were 0.0625 µg/mL (≈ 0.135 µM) and 64 µg/mL (≈ 138 µM), respectively.

In the case of `CC(C)NCc1ccc(-c2ccc(OCC(O)(Cn3cncn3)c3ccc(F)cc3F)cc2)cc1` (stereo unspecified), the MIC was 4 µg/mL (≈ 8.36 µM) in assay [1]; 1 µg/mL (≈ 2.09 µM) in [2]; 16 µg/mL (≈ 33.4 µM) in assay [4]; 1 µg/mL (≈ 2.09 µM) in assay [5]; 0.0625 µg/mL (≈ 0.131 µM) in assay [9]; 0.0625 µg/mL (≈ 0.131 µM) in assay [6]. In addition, the figures for the MIC in assay [7] and in [8] were 0.25 µg/mL (≈ 0.522 µM) and over 64 µg/mL, respectively.

Take `OC(COc1ccc(-c2ccc(NCc3ccccc3)nc2)cc1)(Cn1cncn1)c1ccc(F)cc1F` (stereo unspecified): the MIC in [1] is 4 µg/mL (≈ 7.79 µM); in assay [2] it was 0.25 µg/mL (≈ 0.487 µM); in assay [4] it was 1 µg/mL (≈ 1.95 µM); in assay [5], over 64 µg/mL; in assay [9] it was 0.0625 µg/mL (≈ 0.122 µM); in assay [6], 0.25 µg/mL (≈ 0.487 µM). Also, the MIC in assay [7] stood at 0.25 µg/mL (≈ 0.487 µM); in assay [8], 4 µg/mL (≈ 7.79 µM).

For `COc1ccc(C(=O)Nc2ccc(-c3ccc(OCC(O)(Cn4cncn4)c4ccc(F)cc4F)cc3)cn2)cc1` (stereo unspecified), the MIC in [1] came out at 0.25 µg/mL (≈ 0.448 µM); in assay [2], 0.0625 µg/mL (≈ 0.112 µM); in assay [4], 1 µg/mL (≈ 1.79 µM); in assay [5], 1 µg/mL (≈ 1.79 µM); in [9], 0.25 µg/mL (≈ 0.448 µM); in [6], 0.25 µg/mL (≈ 0.448 µM). Moreover, the results for the MIC in assay [7] and in assay [8] were 0.25 µg/mL (≈ 0.448 µM) and 64 µg/mL (≈ 115 µM), respectively.

As to `OCCNCc1ccc(-c2ccc(OCC(O)(Cn3cncn3)c3ccc(F)cc3F)cc2)cc1` (stereo unspecified), the MIC in assay [1] was 16 µg/mL (≈ 33.3 µM); in assay [2], 4 µg/mL (≈ 8.32 µM); in assay [4], 64 µg/mL (≈ 133 µM); in assay [5] it was 16 µg/mL (≈ 33.3 µM); in assay [9], 1 µg/mL (≈ 2.08 µM); in [6] it was 1 µg/mL (≈ 2.08 µM). The results for the minimum inhibitory concentration (MIC) in assay [7] and in assay [8] were 1 µg/mL (≈ 2.08 µM) and over 64 µg/mL, respectively.

With `O=Cc1ccc(-c2ccc(OCC(O)(Cn3cncn3)c3ccc(F)cc3F)cc2)cc1` (stereo unspecified), the MIC was 0.25 µg/mL (≈ 0.574 µM) in assay [1]; 0.0625 µg/mL (≈ 0.144 µM) in [2]; 1 µg/mL (≈ 2.3 µM) in assay [4]; 0.25 µg/mL (≈ 0.574 µM) in assay [5]; over 64 µg/mL in [9]; 0.25 µg/mL (≈ 0.574 µM) in assay [6]. Besides, the MIC in assay [7] is 1 µg/mL (≈ 2.3 µM); in assay [8], over 64 µg/mL.

As for `O=C(CCl)Nc1ccc(-c2ccc(OCC(O)(Cn3cncn3)c3ccc(F)cc3F)cc2)cn1` (stereo unspecified), the MIC in assay [1] is 1 µg/mL (≈ 2 µM); in assay [2] it was 0.25 µg/mL (≈ 0.5 µM); in assay [4], 1 µg/mL (≈ 2 µM); in assay [5] it was 1 µg/mL (≈ 2 µM); in assay [9] it was 0.25 µg/mL (≈ 0.5 µM); in [6], 0.25 µg/mL (≈ 0.5 µM). In addition, the MIC in [7] is 0.25 µg/mL (≈ 0.5 µM); in assay [8], over 64 µg/mL.
